Key:
[1] = test system: BCMA negative, CD19 positive Nalm-6 cells; experiment: Cytotoxicity assay, anti-BCMA salvage CAR T cells co-cultured with Nalm-6-CD19 positive and K562-CD19 negative cells; format: cell-based; details: 250 ng pre-loaded receptor, with or without 100 nM AP21967, 24 hr, E:T 2:1
Source text: 293 T cells were transduced with lentivirus encoding the dimerizable anti-CD19 salvage receptor to generate a stable source of secreted anti-CD19-scFv-FKBP12 proteins (FIG. 1, right panel). Supernatant containing soluble anti-CD19 salvage receptor polypeptides (anti-CD19 scFV FKBP12) was collected from stable 293T-710 cells and filtered.
The anti-CD19 salvage receptor forms a heterodimer with the anti-BCMA salvage CAR in the presence of AP21967 (FIG. 3A). The cytotoxic potential of anti-BCMA salvage CAR T cells (E) against BCMA negative, CD19 positive Nalm-6 cells (T) was analyzed by co-culturing CAR T cells with a 50:50 mixture of Nalm-6-CD19 positive cells (GFP positive) and K562-CD19 negative cells (BFP positive) for 24 hours at an E:T ratio of 2:1. The co-cultures were treated with vehicle or 100 nM AP21967 and with different volumes of 293T-710 cell supernatant (0 μl, 10 μl, or 30 μl). […] FIG. 3B.
T cells were transduced with lentiviral vectors encoding an anti-BCMA CAR or anti-BCMA salvage CAR. The CART cells were co-cultured with a 50:50 mixture of CD19 positive Nalm-6 cells expressing GFP and CD19 negative K562 cells expressing BFP, in the presence or absence of 250 ng pre-loaded dimerizable anti-CD19 salvage receptor, with or without 100 nM AP21967, for 24 hr, at a 2:1 E:T ratio. […] FIG. 5. AP21967 was not required to trigger the CD19 specific cytotoxicity. […]

[2] = target and assay not given; cited from earlier work
K562-BCMA positive cells [3] = experiment: IFNγ release assay (ELISA), CAR T cells co-cultured with K562-BCMA positive cells; format: cell-based; details: 24 hours, E:T 1:1
Method: (§1) Human PBMCs (1×10^6 cells/mL) were activated with soluble anti-CD3 and anti-CD28 antibodies (50 ng/ml) on day 0. After 24 hr incubation, 1×10^6 cells were transduced with lentivirus encoding either an anti-BCMA CAR or an anti-BCMA salvage CAR. The transduced cells were washed and resuspended at 0.3×10^6 cells/mL growth medium on day 3. The CAR T cells were cultured for 7 days with IL-2 (250 IU/mL) containing medium changed every other day.
Antigen dependent cytokine secretion was analyzed by co-culturing day 10 CAR T cells with K562-BCMA positive cells for 24 hours at an E:T ratio of 1:1 (with or without AP21967). Culture supernatants were collected and IFNγ production was analyzed using the IFNγ ELISA kit (eBiosciences).

K562-BCMA positive cells [4] = experiment: Cytotoxicity assay, CAR T cells co-cultured with K562-BCMA positive and negative cells; format: cell-based; details: 20 nM AP21967, 24 hours, E:T 5:1
Method: as §1
The cytotoxic potential of anti-BCMA CAR T cells and anti-BCMA salvage CAR T cells was analyzed by co-culturing day 10 CAR T cells (E, effector cells) with a 50:50 mixture of K562-BCMA positive cells (GFP positive) (T, target cells) and K562-BCMA negative cells (BFP positive) for 24 hours at an E:T ratio of 5:1. Cells were co-cultured with or without 20 nM AP21967 (a non-immunosuppressive rapamycin analog). The ratio of K562-BCMA positive cells to K562-BCMA negative cells is a direct readout of CAR T cell cytotoxicity.

CO[C@H]1[C@@H](O)[C@H](C)C[C@H](C)/C=C/C=C/C=C(\C)[C@@H](c2c[nH]c3c(C)cccc23)C[C@@H]2CC[C@@H](C)[C@@](O)(O2)C(=O)C(=O)N2CCCC[C@H]2C(=O)O[C@H]([C@H](C)C[C@@H]2CC[C@@H](O)[C@H](OC)C2)C[C@H](O)[C@H](C)/C=C(\C)[C@H]1O [AP21967, C-16-(S)-7-methylindolerapamycin]
requirement of AP21967 for CD19 specific cytotoxicity [1]: not required | IC50 [2]: 10 nM | effect of AP21967 in the IFNγ release co-culture (K562-BCMA positive cells [3]): did not substantially affect cytotoxicity | effect of AP21967 on cytotoxicity (K562-BCMA positive cells [4]): no effect on cytotoxicity

Reference: patent US11976116B2, “Salvage chimeric antigen receptor systems” (2seventy bio, Inc., priority 2016, dated 2024)
